Reference: patent US8101375B2, “Compositions and methods for detecting phosphomonoester” (Illumina, Inc., priority 2005, dated 2012)

Tests used:
p60c-src kinase = p60c-src kinase (Homo sapiens, UniProt P12931); test: Multiplex kinase profiling assay, 194-target pool, chemical labeling, p60c-src kinase; type: biochemical; details: chemical labeling with low pH EDC pre-treatment
Description: (§1) A kinase profiling assay was carried out in four major steps, including the phosphorylation of protein target in a kinase enzyme reaction, labeling of phosphorylated target, hybridization of labeled target to the array, and detection of hybridized target on the array.
(§2) In the first step, phosphorylation was carried out in duplex format such that a mixture of two DNA-protein conjugate targets, one having an amino acid recognition sequence for p60c-src kinase and the other for PKA kinase, were co-incubated with p60c-src kinase and PKA kinase. The reaction was performed in 15 ul of 50 mM HEPES, containing 0.1 mM EDTA, 0.015% Brig 35, 0.15 mM ATP, 30 mM MgCl2, 0.1% 2-mercaptoethanol, pH 7.5.
(§3) Upon completion of the enzymatic reaction; the second step was carried out to detect phosphorylation using chemical labeling or antibody-based labeling. In the chemical labeling method, a solution of 5-(aminoacetamido)fluorescein (NH2-FAM, Molecular Probes, Oreg.) and EDC in MES buffer, pH 6.0, was added to the reaction mixture to a final concentration of 150 mM EDC and 200 μM of NH2-FAM. Where pre-treatment was used to block (i.e. protect) […] moieties, the pH of the reaction mixture was first adjusted to pH 4.5 and then pre-treated with 100 mM of EDC for 1.5 hours at 25° C. After the pre-treatment, the NH2-FAM and EDC were added and the reaction was allowed to proceed overnight. […]

PKA kinase = PKA kinase (Homo sapiens, UniProt P17612); test: Multiplex kinase profiling assay, 194-target pool, chemical labeling, PKA kinase; type: biochemical; details: selectivity check
Description: as §1, §2, §3

Sequence of p60c-src kinase (P12931 whole entry): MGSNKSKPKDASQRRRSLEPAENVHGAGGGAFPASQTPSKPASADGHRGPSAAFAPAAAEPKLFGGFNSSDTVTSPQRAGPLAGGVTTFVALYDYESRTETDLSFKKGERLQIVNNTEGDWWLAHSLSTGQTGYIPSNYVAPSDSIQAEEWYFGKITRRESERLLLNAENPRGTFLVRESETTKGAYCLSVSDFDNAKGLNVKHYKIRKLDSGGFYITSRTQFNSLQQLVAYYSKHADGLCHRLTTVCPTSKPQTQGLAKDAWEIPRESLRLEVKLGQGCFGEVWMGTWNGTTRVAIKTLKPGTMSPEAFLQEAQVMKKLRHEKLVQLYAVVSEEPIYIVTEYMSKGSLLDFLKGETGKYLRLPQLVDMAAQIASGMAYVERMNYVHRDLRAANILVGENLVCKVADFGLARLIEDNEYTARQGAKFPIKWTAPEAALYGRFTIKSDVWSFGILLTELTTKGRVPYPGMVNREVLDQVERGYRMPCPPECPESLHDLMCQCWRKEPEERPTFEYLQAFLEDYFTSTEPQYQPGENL

SMILES: COc1cc2ncnc(Nc3ccc(Oc4ccccc4)cc3)c2cc1OC [Src Kinase Inhibitor I]
- inhibition of p60c-src kinase (p60c-src kinase): 85%
- effect on PKA kinase (PKA kinase): no detectable effect
